Results from patent publication US20260158002A1, “APPLICATION OF COMPOSITION CONTAINING EDARAVONE AND DEXBORNEOL IN IMPROVING OR TREATING COGNITIVE IMPAIRMENT” (NEURODAWN PHARMACEUTICAL CO., LTD., priority 2021, published 2026).

How the values were obtained:
[1] = system: 5×FAD transgenic mice; test: Water maze test in 5×FAD transgenic mice; type: in vivo, mouse; details: 5×FAD mice
Description: (§1) In the experiment, the animals were divided into 4 groups. Administration was performed on the mice in each group from 8 weeks of age. After 16 weeks of continuous daily administration, water maze and Y maze behavioral tests were performed. After the behavioral tests were completed, the animals were sacrificed, and brain slice electrophysiology and AD pathology within the brain were tested, including the test of Aβ plaques, biomarkers such as GFAP and Iba-1, p-Tau, etc.
5×FAD: edaravone group: ten 5×FAD mice were given edaravone ( ? ®) 6 mg/kg via i.p. at a dose of 10.0 mL/kg once daily.
5×FAD: composition group: ten 5×FAD mice were given 7.5 mg/kg edaravone and dexborneol concentrated solution for injection ( ? ®) (edaravone:dexborneol=4:1, containing 6 mg/kg edaravone and 1.5 mg/kg dexborneol) at a dose of 10.0 ml/kg once daily.
Experiment preparation: A constant temperature pool (120 cm in inner diameter and 50 cm in height) of a water maze was filled with clear water. The water temperature was controlled at about 18° C.-22° C. The four apexes of the pool were selected and designated as “S”, “N”, “W” and “E”, respectively. The platform was placed in the “SW” direction and 1-2 cm below the water surface. Titanium dioxide was added to the water to make the water opaque milky white.
Parameter setting: the test time was set to 1 min, and the residence time of mice on the platform was set to 2 s.
Training: The first 5 days were for the training phase of the water maze, the mice were placed in the pool in four different orientations every day, and their trajectories before boarding the platform, as well as the travel and time in each quadrant were recorded.
Testing: Testing was performed on the first day after the training was completed. During the testing, the platform was removed, the testing time was 60 s, the mouse was placed in the NE orientation, and the number of times the mouse crossed the platform and the time in the platform quadrant during the testing were recorded.
Data were expressed as Mean±SEM. […]

[2] = system: primary hippocampal neurons; details: cited from earlier work
[3] = system: rat model of scopolamine-induced dementia; details: oral 15 mg/kg/day for 7 consecutive days; cited from earlier work
[4] = system: 5×FAD transgenic mice; test: AD pathology examination (immunohistochemical test) in 5×FAD transgenic mice; type: in vivo, mouse; details: 5×FAD mice; edaravone 6 mg/kg or composition 7.5 mg/kg i.p. once daily for 16 weeks
Description: as §1
After the behavioral test of animals was completed, the mice were subjected to cardiac perfusion followed by brain removal, and the brain was fixed in 4% paraformaldehyde for 24 h, dehydrated with 30% sucrose, snap-frozen and embedded with an embedding medium, and sliced (thickness […]). The brain slices having the hippocampal region were selected, washed with PBS for 5 min×3 times, permeabilized with 0.2% Triton, washed with PBS for 7 min×3 times, and blocked with Blocking buffer (2.5% BSA, 0.3% Triton) for 1 h. The brain slices were placed in a primary antibody overnight at 4° C. On the second day, the brain slices in the primary antibody were taken out, washed with PBS for 5 min×3 times, placed in a second antibody, and incubated for 1 h at room temperature in the dark. The brain slices were taken out and washed with PBS for 5 min×3 times. An anti-fluorescence quencher containing DAPI was added dropwise, and the slices were mounted.
Data were expressed as Mean±SEM. Statistical analysis between groups was performed using Prism software (GraphPad, USA): One-way or Two-way ANOVA was used for comparison of two or more groups, and then Fisher's LSD test was selected for analysis. P<0.05 indicated significant difference. ##p<0.01, ###p<0.001, ####p<0.0001, comparison with WT group; *p<0.05, **p<0.01, […], ****p<0.0001, comparison with model group; & p<0.05, &&p<0.01, &&&&p<0.0001, comparison between two groups indicated.

[5] = edaravone 6 mg/kg or composition 7.5 mg/kg i.p. once daily for 16 weeks

SMILES: CC1=NN(c2ccccc2)C(=O)C1 [edaravone, 3-methyl-1-phenyl-2-pyrazolin-5-one]
- number of times the mouse crossed the platform in platform withdrawal test, vs solvent control [1, 5]: prolong the residence time in the target quadrant and the number of times the mouse crossed the platform
- residence time in the target quadrant in platform withdrawal test, vs solvent control [1, 5]: prolong the residence time in the target quadrant
- escape latency in water maze hidden platform test, vs solvent control ([1]; edaravone 6 mg/kg or composition 7.5 mg/kg i.p. once daily for 16 weeks from 8 weeks of age): could significantly shorten the escape latency
- H2O2- and glutamate-induced death of primary hippocampal neurons [2]: capable of reducing H2O2— and glutamate-induced death of primary hippocampal neurons
- scopolamine-induced spatial learning and long-term memory impairments [3]: can improve scopolamine-induced spatial learning and long-term memory impairments
- astrogliosis within the brain, vs solvent control group [4]: could significantly decrease
- hippocampal tau protein hyperphosphorylation, vs solvent control group [4]: could significantly decrease
- microgliosis within the brain, vs solvent control group [4]: could significantly decrease
- β-amyloid plaques within the brain, vs solvent control group [4]: could significantly decrease
